Test results published in ChEMBL document CHEMBL4011583, “Enhancing activity and selectivity in a series of pyrrol-1-yl-1-hydroxypyrazole-based aldose reductase inhibitors: The case of trifluoroacetylation” (Eur J Med Chem, 2017).

Experiments:
[1] = Inhibition of Wistar rat lens ALR2 assessed as reduction in NADPH oxidation using D,L-glyceraldehyde as substrate by UV-visible spectrophotometric method
[2] = biological target: Aldo-keto reductase family 1 member A1 (Rattus norvegicus, UniProt P51635); assay: Inhibition of Wistar rat kidney ALR1 assessed as reduction in NADPH oxidation using D-glycuronate as substrate by UV-visible spectrophotometric method
Rattus norvegicus [3] = species on record: Rattus norvegicus; assay: Selectivity index, ratio of IC50 for Wistar rat kidney ALR1 to IC50 for Wistar rat lens ALR2
Rattus norvegicus [4] = species on record: Rattus norvegicus; assay: Inhibition of ALR2 in Wistar rat lens assessed as reduction in glucose induced-sorbitol accumulation by measuring sorbitol level at 2 uM pretreated for 30 mins followed by glucose challenge measured after 3 hrs by resazurin dye based fluorescence assay (reference value: 1026.51 +/- 157.33)
Rattus norvegicus [5] = species on record: Rattus norvegicus; assay: Inhibition of ALR2 in Wistar rat lens assessed as reduction in glucose induced-sorbitol accumulation by measuring sorbitol level at 10 uM pretreated for 30 mins followed by glucose challenge measured after 3 hrs by resazurin dye based fluorescence assay (reference value: 1026.51 +/- 157.33)
Rattus norvegicus [6] = species on record: Rattus norvegicus; assay: Inhibition of ALR2 in Wistar rat lens assessed as reduction in glucose induced-sorbitol accumulation by measuring sorbitol level at 50 uM pretreated for 30 mins followed by glucose challenge measured after 3 hrs by resazurin dye based fluorescence assay relative to control; set-up: scale not given: the % may be the effect or the level left
[7] = Mixed-type inhibition of recombinant human ALR2 expressed in Escherichia coli BL21 (DE3) assessed as enzyme-substrate-inhibitor complex using varying levels of D,L-glyceraldehyde substrate by Hanes-Woolf plot analysis
[8] = Mixed-type inhibition of recombinant human ALR2 expressed in Escherichia coli BL21 (DE3) assessed as enzyme-inhibitor complex using varying levels of D,L-glyceraldehyde substrate by Hanes-Woolf plot analysis
[9] = Mixed-type inhibition of recombinant human ALR2 expressed in Escherichia coli BL21 (DE3) assessed as enzyme-substrate-inhibitor complex using varying levels of L-idose substrate by Hanes-Woolf plot analysis
[10] = Mixed-type inhibition of recombinant human ALR2 expressed in Escherichia coli BL21 (DE3) assessed as enzyme-inhibitor complex using varying levels of L-idose substrate by Hanes-Woolf plot analysis
[11] = Mixed-type inhibition of recombinant human ALR2 expressed in Escherichia coli BL21 (DE3) assessed as enzyme-substrate-inhibitor complex using varying levels of 4-hydroxy-trans-2-nonenal substrate by Hanes-Woolf plot analysis
[12] = Mixed-type inhibition of recombinant human ALR2 expressed in Escherichia coli BL21 (DE3) assessed as enzyme-inhibitor complex using varying levels of 4-hydroxy-trans-2-nonenal substrate by Hanes-Woolf plot analysis
[13] = Mixed-type inhibition of recombinant human ALR2 expressed in Escherichia coli BL21 (DE3) assessed as enzyme-substrate-inhibitor complex using varying levels of glutathionyl-4-hydroxytrans-2-nonenal substrate by Hanes-Woolf plot analysis
[14] = Mixed-type inhibition of recombinant human ALR2 expressed in Escherichia coli BL21 (DE3) assessed as enzyme-inhibitor complex using varying levels of glutathionyl-4-hydroxytrans-2-nonenal substrate by Hanes-Woolf plot analysis
Homo sapiens = species on record: Homo sapiens; assay: Ratio of Ki for recombinant human ALR2 expressed in Escherichia coli BL21 (DE3) assessed as enzyme-substrate-inhibitor complex using varying levels of glutathionyl-4-hydroxytrans-2-nonenal substrate to Ki for human ALR2 expressed in Escherichia coli BL21 (DE3) assessed as enzyme-inhibitor complex using varying levels of glutathionyl-4-hydroxytrans-2-nonenal substrate
[15] = Inhibition of Fischer-344 rat lens ALR2

Chain of Aldo-keto reductase family 1 member A1 (P51635 whole entry, looked up): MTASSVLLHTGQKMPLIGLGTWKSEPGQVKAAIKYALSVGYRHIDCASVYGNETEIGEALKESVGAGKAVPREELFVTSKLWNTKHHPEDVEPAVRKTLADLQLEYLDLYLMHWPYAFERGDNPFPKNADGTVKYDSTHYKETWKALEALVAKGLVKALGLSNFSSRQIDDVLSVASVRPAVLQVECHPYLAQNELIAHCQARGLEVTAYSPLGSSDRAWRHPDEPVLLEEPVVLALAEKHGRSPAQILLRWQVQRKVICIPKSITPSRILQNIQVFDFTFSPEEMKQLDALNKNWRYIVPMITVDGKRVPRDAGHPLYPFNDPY

| Compound | IC50 [1] | pIC50 [1] | IC50 [2] | Ratio IC50 (Rattus norvegicus [3]) | Activity (Rattus norvegicus [4]) | Activity (Rattus norvegicus [5]) | Activity (Rattus norvegicus [6]) | Ki [7] | Ki [8] | Ki [9] | Ki [10] | Ki [11] | Ki [12] | Ki [13] | Ki [14] | Ratio Ki (Homo sapiens) | IC50 [15] |
| --- | --- | --- | --- | --- | --- | --- | --- | --- | --- | --- | --- | --- | --- | --- | --- | --- | --- |
| O=C(c1ccc(F)cc1)c1cc(C(=O)C(F)(F)F)n(-c2cnn(O)c2)c1 | 78 nM | 7.11 | 67100 nM | 858 | 838 nmol/g | 710 nmol/g | 55% | 820 nM | 5270 nM | 700 nM | 8610 nM | 2190 nM | 5840 nM | 2460 nM | 1860 nM | 0.75 |  |
| CS(=O)(=O)c1ccc(C(=O)c2cc(C(=O)C(F)(F)F)n(-c3cnn(O)c3)c2)cc1 | 94 nM | 7.03 | 72800 nM | 775 |  |  |  |  |  |  |  |  |  |  |  |  |  |
| O=C(c1ccccc1)c1cc(C(=O)C(F)(F)F)n(-c2cnn(O)c2)c1 | 242 nM | 6.62 | > 100000 nM | > 413 |  |  |  |  |  |  |  |  |  |  |  |  |  |
| O=C(c1ccc(-c2ccccc2)cc1)c1cc(C(=O)C(F)(F)F)n(-c2cnn(O)c2)c1 | 74 nM | 7.19 | 14100 nM | 190 |  |  |  |  |  |  |  |  |  |  |  |  |  |
| CSc1ccc(C(=O)c2cc(C(=O)C(F)(F)F)n(-c3cnn(O)c3)c2)cc1 | 43 nM | 7.37 | 27900 nM | 650 | 889 nmol/g | 613 nmol/g | 55% | 210 nM | 2010 nM | 270 nM | 4550 nM | 390 nM | 2830 nM | 930 nM | 690 nM | 0.75 |  |
| COc1ccc(C(=O)c2cc(C(=O)C(F)(F)F)n(-c3cnn(O)c3)c2)cc1 | 73 nM | 7.14 | 34200 nM | 468 |  |  |  |  |  |  |  |  |  |  |  |  |  |
| O=C(c1cccc(F)c1)c1cc(C(=O)C(F)(F)F)n(-c2cnn(O)c2)c1 | 140 nM | 6.85 | 42300 nM | 339 |  |  |  |  |  |  |  |  |  |  |  |  |  |
| COc1cccc(C(=O)c2cc(C(=O)C(F)(F)F)n(-c3cnn(O)c3)c2)c1 | 64 nM | 7.13 | 23700 nM | 370 |  |  |  |  |  |  |  |  |  |  |  |  |  |
| O=C1NC(=O)[C@@]2(CCOc3ccc(F)cc32)N1 [SORBINIL] |  |  |  |  |  |  |  |  |  |  |  |  |  |  |  |  | 250 nM |
